pIC50: −log10 of the molar value.

The values below come from PMC12373846, “Hemoglobin as a pseudoperoxidase and drug target for oxidative stress-related diseases” (Signal Transduction and Targeted Therapy, 2025).

Experiment [1] is described as follows: DPPH radical scavenging assay. As to conditions: Fig. S1e. How it is done:
In a 96-well microplate, samples (20 μl) at concentrations ranging from 0.1 to 100 μM were mixed with 80 μL of 50 mM sodium phosphate buffer (pH 7.2) and 100 μL of DPPH (1,1-diphenyl-2-picrylhydrazyl) solution (250 μM in methanol) and incubated for 30-min in the dark. Each sample was quantified using a microplate fluorescence reader (SpectraMax iD5, Molecular Devices) at absorbance (517 nm). Edaravone was used as a positive control. The radical scavenging activity was estimated using the following equation: sample absorbance / control absorbance ×100. The dose-response curve, EC50 for the DPPH, was calculated and determined by fitting data with GraphPad Prism software. The fitting method had no special handling of outliers.

The test system of experiment [2] is primary cultured hippocampal astrocytes. In words: oROS-G intracellular H2O2 imaging. Type of experiment: cell-based, mouse. The conditions noted are these: for oROS-G fluorescence (intracellular H2O2): Fig. 3f. As for the experimental part: (§1) Primary hippocampal astrocytes were obtained from postnatal day 0‒2 (P0‒2) C57BL/6 mice as previously described.[73] The hippocampal tissue was dissected free of meninges, minced, and dissociated into a single-cell suspension by trituration. The cells were grown in Dulbecco’s modified Eagle’s medium supplemented with D-glucose (4500 mg/L), L-glutamine, sodium pyruvate (110 mg/L), 10% heat-inactivated horse serum, 10% heat-inactivated fetal bovine serum, and 1000 U/ml penicillin‒streptomycin. The cells were maintained at 37 °C in a humidified atmosphere containing 5% CO2.
H2O2 specific, highly sensitive, and fast on-and-off kinetics, a genetically encoded oROS-G plasmid kindly provided by Dr. Andre Berndt. oROS-G was cloned under the GFAP104 promoter and delivered into primary cultured hippocampal astrocytes via the NeoN^TM transfection system (Invitrogen). The cells were treated with various concentrations of Aβ (1 to 10 μM) or 6-OHDA (Tocris, 2547; 10 to 50 μM) to induce aberrant H2O2. For subsequent experiments, 5 μM Aβ and 30 μM 6-OHDA were selected on the basis of initial dose‒response studies. KDS12025 (10 μM) and sodium pyruvate (1 mM) were applied as indicated in each experiment. For live-cell imaging, astrocytes were maintained in a humidified chamber at 37 °C with 5% […] during imaging to preserve physiological conditions. Changes in the fluorescence of oROS-G were recorded via an A1 Nikon confocal microscope equipped with a temperature- and humidity-controlled stage. Images were captured every 20 min for up to 40 h (20for the 6-OHDA experiments) via the NIS-Elements software (Nikon, Japan) for time-lapse imaging. The excitation and emission wavelengths for oROS-G fluorescence were set to 485 nm and 538 nm, respectively. Endpoint fluorescence measurements were also collected for KDS12025 dose-dependent experiments. To analyze the fluorescence intensity, individual regions of interest (ROIs) were manually selected for each astrocyte via NIS-Elements software (Nikon, Japan). The fluorescence intensity changes were normalized to the baseline values (ΔF/F0) to quantify the H2O2 dynamics. To determine the EC50 of KDS12025, endpoint fluorescence intensity data from oROS-G experiments were normalized to those of the Aβ+vehicle control group. The normalized data were analyzed via GraphPad Prism software to fit a four-parameter logistic curve, yielding the EC50 value for the H2O2-decomposing activity of KDS12025.

Experiment [3] shares this test system. The experiment can be described thus: DCFDA intracellular ROS assay. It counts as cell-based, mouse. As to conditions: for ROS level (DCFDA): Fig. 3d. As for the experimental part: as §1
The intracellular ROS levels of astrocytes were determined via 2′,7′- dichlorodihydrofluorescein diacetate (DCFDA; Thermo Fisher). Primary cultured hippocampal astrocytes were seeded into black 96-well plates (Ibidi) at a density of 5 × 10⁴ cells per well. The plates were incubated with oligomerized Aβ42 in the presence of KDS12008, KDS12017, KDS12025, HTPEB (10 µM each), and sodium pyruvate (1 mM). These cells were subsequently washed with Ca^2+ and Mg^2+-containing PBS, followed by the application of 30 µM DCFDA and incubation at 37 °C for 30 min in a dark incubator. The mean fluorescence intensity of each well was measured via iD5 microplate readers at 485 nm and 530 nm. The fluorescence values were calculated by subtracting the blank readings and normalizing them to those of the control group.

In experiment [4] the target is T1, HRP (Armoracia rusticana, UniProt P00433).
T1 sequence (P00433 31-353): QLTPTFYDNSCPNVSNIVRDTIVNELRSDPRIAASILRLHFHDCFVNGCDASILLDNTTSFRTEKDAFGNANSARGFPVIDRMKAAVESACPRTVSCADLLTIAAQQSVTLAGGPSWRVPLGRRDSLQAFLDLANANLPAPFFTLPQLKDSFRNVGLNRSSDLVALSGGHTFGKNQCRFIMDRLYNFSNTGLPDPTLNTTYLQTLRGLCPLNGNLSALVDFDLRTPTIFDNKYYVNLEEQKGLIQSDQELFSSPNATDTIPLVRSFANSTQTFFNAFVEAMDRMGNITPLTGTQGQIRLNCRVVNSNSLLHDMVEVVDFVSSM
In words: ROS-Glo H2O2 assay with HRP. Type of experiment: biochemical, horseradish. As for the experimental part:
Hb (Sigma‒Aldrich, H7379), H2O2 (Sigma‒Aldrich, H1009), and Amplex Red reagents (Invitrogen, A12222) were obtained for the study. A 4 μM H2O2 solution was prepared in 50 mM sodium phosphate buffer (pH 7.2). Then, 49 μl of this mixture was mixed with 1 μl of the test compound in DMSO or distilled water. The mixture was combined with an assay mixture of Amplex Red reagent (20 mM stock to 0.1 mM) and HRP (200 U/ml stock to 0.2 U/ml) and added to the wells at 50 μl/well. After a 60-min incubation at 37 °C, resorufin production was quantified via a microplate fluorescence reader (SpectraMax iD5, Molecular Devices) at ex/em = 535/580 nm. […] For the ROS-Glo assay, the H2O2 substrate solution and ROS-Glo detection solution were prepared according to the manufacturer’s instructions. 10 μM H2O2 and drugs were prepared as in the Amplex Red assay, with HRP, Hb, CAT, or GPx added as needed. The mixture was added to the wells at 100 μl/well and incubated for 60 min at 37 °C. H2O2 substrate solution was added, and the mixture was incubated at room temperature for 30 min. After the H2O2 substrate solution was added and incubated at room temperature for 30 min, the ROS-Glo detection solution was added, and the mixture was incubated for 15 min. Luminescence was measured via iD5 microplate readers. […] The U/ml was calculated on the basis of the amount of H2O2 reduced by Hb during the reaction, using μg/ml and U/mg.
To evaluate the extent of peroxidase function facilitation by HTPEB (1 μM) and KDS12025 (1 μM) in HRP (0.2 U/ml) and Hb (10 μg/ml), we used the ROS-Glo assay over 30 and 60 min. The fold change was calculated by dividing the delta values during the 30-min reaction for the vehicle over drug conditions.

In the case of `CC1=NN(c2ccccc2)C(=O)C1` [Edaravone], the pIC50 in experiment [1] is 4.78.
As to `CC(=O)C(=O)[O-].[Na+]` [Sodium pyruvate, sodium pyruvate, reference compound], in experiment [2] (6-OHDA 30 μM + sodium pyruvate, Fig. 3k), the “oROS-G H2O2 level” value is 177.0±17.5. The “oROS-G H2O2 level, 40-h imaging” value worked out at 137.5±9.751 in experiment [2] (Aβ 5 μM + sodium pyruvate 1 mM, Fig. 3h) and 189.0±23.55 in experiment [2] (putrescine 180 μM + sodium pyruvate 1 mM, Fig. 3i). Further, the “Aβ-induced ROS level (DCFDA), normalized to control” value in experiment [3] (Aβ 5μM + sodium pyruvate 1mM, Fig. 3e) stood at 149.1±6.194.
As to “Aβ: oligomerized Amyloid-beta (Aβ)42 aggregates [reference compound]”, the “oROS-G fluorescence (intracellular H2O2)” value was 109.4±4.271 in experiment [2] (Aβ 1μM), 140.5±4.407 in experiment [2] (Aβ 5μM) and 208.1±3.662 in experiment [2] (Aβ 10μM). Besides, the “ROS level (DCFDA)” value is listed as 101.9±6.217 in experiment [3] (Aβ 1μM), 137.3±8.218 in experiment [3] (Aβ 5μM) and 155.2±9.442 in experiment [3] (Aβ 10μM).
“HRP: horseradish peroxidase, plant-derived heme-containing peroxidase”: in experiment [4] (Fig. S1a), the “EC50 of HRP for H2O2 decomposition without HTPEB” value was determined as 0.062 U/ml. The “tau value, reaction time-response of HRP without HTPEB” value in experiment [4] (Fig. S1b) is reported as 13.7 min.
